Laboratory results published in patent publication US10640507B2, “PBD antibacterial agents” (KING'S COLLEGE LONDON, priority 2015, dated 2020).

Assays:
WI38 (Healthy cell line) = test: MTT cytotoxicity assay; assay type: cell-based; conditions: Homo sapiens, WI-38; MTT; 24 h continuous exposure; highest concentration tested 20 μM; read-out: IC50 WI38 (Healthy cell line)
Description: (§1) Two immortalised human cell lines, HeLa and WI38 were used for cytotoxicity screening of the compounds. HeLa is a human cervical cancer cell line and WI38 is a normal healthy cell line. The cell lines were obtained from the American Type Culture Collection. The cell-lines were maintained in monolayer culture in 75 cm2 flasks (TPP, Switzerland) under a humidified 5% CO2 atmosphere at 37° C. The HeLa cell line was maintained in Dulbecco's Modified Eagles Media (DMEM; Invitrogen) supplemented with foetal bovine serum (10% v/v; Invitrogen), L-glutamine (2 mM; Invitrogen), non-essential amino acids (1×; Invitrogen) and Penicillin-Streptomycin (1% v/v, Invitrogen). For WI38, Eagle's Minimum Essential Medium, and Penicillin-Streptomycin (1% v/v, Invitrogen) and foetal bovine serum (10%, nvitrogen) was used. For passaging, cells were washed with phosphate buffered saline [PBS] (GIBCO 14040, Invitrogen, UK), incubated with trypsine (GIBCO 25300, Invitrogen, UK), and re-seeded into fresh medium. For seeding, cells were counted using a Neubauer haemocytometer (Assistant, Germany) by microscopy (Nikon, USA) on a non-adherent suspension of cells that were washed in PBS, trypsinised, centrifuged at 8° C. at 8000 rpm for 5 min and re-suspended in fresh medium.
(§2) The cells were grown in normal cell culture conditions at 37° C. under a 5% CO2 humidified atmosphere using appropriate medium. The cell count was adjusted to 10^5 cells/ml/ and 20,000 cells were added per well. The cells were incubated for 24 hours and 1 μl of the appropriate inhibitor concentrations were to the wells in triplicates. After 24 h of continuous exposure to each compound, the cytotoxicity was determined using the MIT (3-(4,5-Dimethylthiazol-2-yl)-2,5-diphenyltetrazolium bromide) (Lancaster Synthesis Ltd, UK) colorimetric assay. Absorbance was quantified by spectrophotometry at λ=570 nm (Envision Plate Reader, PerkinElmer, USA). IC50 values were calculated by a dose-response analysis using the Prism Graphpad Prism® software. The cytotoxicity results are shown below in Table 12.

[1] = test system: HeLa (Cervical cancer cell line); test: MTT cytotoxicity assay; assay type: cell-based; conditions: Homo sapiens, MTT, 24 h continuous exposure, read-out: IC50 HeLa (Cervical cancer cell line)
Description: as §1, §2

E. coli gyrase = target: T1, E. coli gyrase (Escherichia coli, UniProt P0AES4+P0AES6); test: Gyrase microplate assay; assay type: biochemical; conditions: agent 10-75 μM, FIG. 6
T1 construct: purchased Inspiralis (Norwich, UK) TRG01
Description: (§3) The effect of the antimicrobial agents on gyrase was assessed using E. coli gyrase microplate assay kit (# TRG01) and with S. aureus gyrase microplate assay kit (# SATRG01). The effect of topoisomerase IV using was assessed using E. coli Topo IV microplate assay kit (# TRIV01) and with the S. aureus Topo IV microplate assay kit (# SATRIV01). All of these assay kits were obtained from Inspiralis (Norwich, UK). These assay kits are supplied with the relevant enzyme, substrate and buffers.
(§4) 1. Rehydrate wells with 3×200 μl Wash buffer (diluted from 20× stock with ultra-pure water).
(§5) 2. Immobilise 100 μl of 500 nM TF01 oligo in each well (5 μl of 10 μM TF01 oligo in 95 μl wash buffer).
(§6) 3. Incubate 5 minutes at room temperature.
(§7) 4. Wash off excess oligo with 3×200 μl Wash buffer.
(§8) 5. Incubate 2U (0.4 μl stock) of gyrase with 0.75 μg of relaxed pN01 in a reaction volume of 30 μl at 37° C. for 30 minutes in assay buffer—This is the part agent is added therefore the reaction volume is adjusted to account for this.
(§9) 6. Add 100 μl TF buffer (diluted from 20× stock) to well and incubate for a further 30 minutes at room temperature to allow triplex formation.
(§10) 7. Remove liquid from well and wash with 3×200 μl TF buffer to wash away unbound plasmid.
(§11) 8. Stain with DNA detection dye (diluted to ix with T10 buffer). Add 200 μl per well and incubate for 10-20 minutes at room temperature.
(§12) 9. Mix well and read in fluorescence plate reader Excitation wavelength: 495 nm; Emission wavelength: 537 nm. Use 485/520 filters in plate reader in 231.
(§13) 10. If required 10 μl of sample can be used to run on 1% agarose gel.
(§14) As the reaction volume is 30 μl make concentrations at 30× greater than required so 1 μl of the appropriate concentration can be added to the reaction. For each agent concentrations from a range of 10-75 μM.
(§15) Xmin—minima among all data points
(§16) Xmax—maxima among all data points
(§17) Xi0-1—data point normalised between 0-1

S. aureus gyrase = target: T2, S. aureus gyrase (Staphylococcus aureus, UniProt P0A0K8+P20831); test: Gyrase microplate assay; assay type: biochemical; conditions: agent 10-75 μM, FIG. 6
T2 construct: purchased Inspiralis (Norwich, UK) SATRG01
Description: as §3, §4, §5, §6, §7, §8, §9, §10, §11, §12, §13, §14, §15, §16, §17

S. aureus Topo IV = target: T3, S. aureus Topo IV (Staphylococcus aureus, UniProt P0C1S7+P0C1U9); test: Topo IV microplate assay; assay type: biochemical; conditions: agent 10-75 μM, FIG. 5
T3 construct: purchased Inspiralis (Norwich, UK) SATRIV01
Description: as §3, §4, §5, §6, §7, §8, §9, §10, §11, §12, §13, §14
(§18) The procedure for assessing effect of the agents on topoisomerase IV was the same as for the gyrase apart from the following changes; 1.5 U of topoisomerase IV was used in place of gyrase and supercoiled pN01 instead of relaxed pN01 was used in step 5. Results obtained were normalised using the following equation: […]
as §15, §16, §17

E. coli Topo IV = target: T4, E. coli Topo IV (Escherichia coli, UniProt P0AFI2+P20083); test: Topo IV microplate assay; assay type: biochemical; conditions: agent 10-75 μM, FIG. 5
T4 construct: purchased Inspiralis (Norwich, UK) TRIV01
Description: as §3, §4, §5, §6, §7, §8, §9, §10, §11, §12, §13, §14, §18, §15, §16, §17

T1 sequence (P0AES4 whole entry, one chain of several): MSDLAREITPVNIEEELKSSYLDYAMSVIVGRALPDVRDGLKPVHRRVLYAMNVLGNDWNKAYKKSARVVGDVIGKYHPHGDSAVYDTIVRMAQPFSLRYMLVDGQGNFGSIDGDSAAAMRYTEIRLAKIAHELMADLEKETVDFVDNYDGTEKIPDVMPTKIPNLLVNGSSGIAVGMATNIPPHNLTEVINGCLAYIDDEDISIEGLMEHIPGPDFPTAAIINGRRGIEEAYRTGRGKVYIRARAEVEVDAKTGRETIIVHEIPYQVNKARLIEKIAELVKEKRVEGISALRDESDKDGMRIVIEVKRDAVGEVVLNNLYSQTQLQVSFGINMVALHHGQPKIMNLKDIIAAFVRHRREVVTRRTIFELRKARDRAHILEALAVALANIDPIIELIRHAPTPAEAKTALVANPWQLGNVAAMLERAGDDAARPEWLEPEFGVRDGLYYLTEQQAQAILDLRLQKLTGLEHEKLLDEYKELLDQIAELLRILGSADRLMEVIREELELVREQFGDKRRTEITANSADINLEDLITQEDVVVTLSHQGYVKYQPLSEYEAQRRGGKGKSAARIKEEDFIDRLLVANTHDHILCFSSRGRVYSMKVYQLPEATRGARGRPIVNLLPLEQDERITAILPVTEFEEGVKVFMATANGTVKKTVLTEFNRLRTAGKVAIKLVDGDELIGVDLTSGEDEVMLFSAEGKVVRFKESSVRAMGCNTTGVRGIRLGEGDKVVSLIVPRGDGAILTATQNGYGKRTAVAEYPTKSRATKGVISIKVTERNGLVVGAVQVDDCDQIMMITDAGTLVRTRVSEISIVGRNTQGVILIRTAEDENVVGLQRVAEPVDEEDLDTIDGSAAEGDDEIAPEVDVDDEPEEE
T2 sequence (P0A0K8 whole entry): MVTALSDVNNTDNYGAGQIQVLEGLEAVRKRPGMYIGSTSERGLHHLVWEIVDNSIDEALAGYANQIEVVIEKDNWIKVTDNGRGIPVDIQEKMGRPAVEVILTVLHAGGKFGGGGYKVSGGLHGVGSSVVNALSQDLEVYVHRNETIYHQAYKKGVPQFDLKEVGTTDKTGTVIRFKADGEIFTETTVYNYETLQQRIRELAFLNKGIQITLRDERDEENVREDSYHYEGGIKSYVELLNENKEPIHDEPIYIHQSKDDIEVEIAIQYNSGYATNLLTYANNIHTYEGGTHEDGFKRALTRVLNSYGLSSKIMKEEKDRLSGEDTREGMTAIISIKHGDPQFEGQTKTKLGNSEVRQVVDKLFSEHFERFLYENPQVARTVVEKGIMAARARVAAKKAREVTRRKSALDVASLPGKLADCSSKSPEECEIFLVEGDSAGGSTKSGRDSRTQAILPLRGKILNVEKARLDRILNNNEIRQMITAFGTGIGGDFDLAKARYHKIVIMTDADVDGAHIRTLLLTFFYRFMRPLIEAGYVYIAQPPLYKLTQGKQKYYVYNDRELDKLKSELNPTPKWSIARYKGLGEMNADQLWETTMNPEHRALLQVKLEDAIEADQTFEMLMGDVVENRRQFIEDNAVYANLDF
T2 sequence (P20831 whole entry): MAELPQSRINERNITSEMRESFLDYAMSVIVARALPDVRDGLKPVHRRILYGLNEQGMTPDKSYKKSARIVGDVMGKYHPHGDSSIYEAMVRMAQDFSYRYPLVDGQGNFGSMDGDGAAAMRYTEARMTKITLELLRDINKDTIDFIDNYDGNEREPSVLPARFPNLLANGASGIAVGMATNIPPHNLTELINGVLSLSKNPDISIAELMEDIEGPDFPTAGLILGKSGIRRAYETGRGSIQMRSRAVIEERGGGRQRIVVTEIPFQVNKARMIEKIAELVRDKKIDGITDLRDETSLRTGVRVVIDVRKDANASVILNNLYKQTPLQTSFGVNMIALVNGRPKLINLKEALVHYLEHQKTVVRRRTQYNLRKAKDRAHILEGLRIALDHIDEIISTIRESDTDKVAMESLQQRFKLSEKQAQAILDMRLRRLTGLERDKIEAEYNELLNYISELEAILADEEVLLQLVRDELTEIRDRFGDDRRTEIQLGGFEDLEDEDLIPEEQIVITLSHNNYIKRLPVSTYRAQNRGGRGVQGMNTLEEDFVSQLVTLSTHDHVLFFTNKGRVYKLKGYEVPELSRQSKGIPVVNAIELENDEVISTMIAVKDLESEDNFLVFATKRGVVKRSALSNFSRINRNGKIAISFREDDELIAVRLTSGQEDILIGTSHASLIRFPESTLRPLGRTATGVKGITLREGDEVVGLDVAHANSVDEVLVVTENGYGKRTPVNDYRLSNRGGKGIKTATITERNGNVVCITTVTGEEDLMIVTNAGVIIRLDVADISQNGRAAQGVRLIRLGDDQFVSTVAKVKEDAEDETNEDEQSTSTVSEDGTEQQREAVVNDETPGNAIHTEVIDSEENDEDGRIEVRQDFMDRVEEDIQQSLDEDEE
T3 sequence (P0C1U9 whole entry): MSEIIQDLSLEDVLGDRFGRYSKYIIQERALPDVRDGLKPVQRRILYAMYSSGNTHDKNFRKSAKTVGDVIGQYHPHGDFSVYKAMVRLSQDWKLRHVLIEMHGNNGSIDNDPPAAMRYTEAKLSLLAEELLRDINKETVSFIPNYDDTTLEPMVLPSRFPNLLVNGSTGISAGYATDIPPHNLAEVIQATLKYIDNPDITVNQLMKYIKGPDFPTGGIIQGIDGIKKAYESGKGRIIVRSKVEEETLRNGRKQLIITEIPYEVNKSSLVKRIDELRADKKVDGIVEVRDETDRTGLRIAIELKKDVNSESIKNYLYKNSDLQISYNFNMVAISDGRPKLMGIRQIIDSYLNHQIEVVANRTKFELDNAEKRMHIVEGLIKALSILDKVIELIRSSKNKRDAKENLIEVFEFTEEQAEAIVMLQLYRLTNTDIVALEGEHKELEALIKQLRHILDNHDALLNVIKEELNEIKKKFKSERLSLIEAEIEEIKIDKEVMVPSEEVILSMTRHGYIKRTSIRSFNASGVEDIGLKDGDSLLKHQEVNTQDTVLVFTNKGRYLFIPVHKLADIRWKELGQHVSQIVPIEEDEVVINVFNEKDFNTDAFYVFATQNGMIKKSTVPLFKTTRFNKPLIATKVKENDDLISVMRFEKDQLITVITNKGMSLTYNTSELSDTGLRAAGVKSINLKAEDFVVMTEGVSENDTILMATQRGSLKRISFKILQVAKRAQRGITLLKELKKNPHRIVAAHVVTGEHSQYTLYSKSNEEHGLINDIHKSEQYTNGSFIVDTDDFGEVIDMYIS
T3 sequence (P0C1S7 whole entry): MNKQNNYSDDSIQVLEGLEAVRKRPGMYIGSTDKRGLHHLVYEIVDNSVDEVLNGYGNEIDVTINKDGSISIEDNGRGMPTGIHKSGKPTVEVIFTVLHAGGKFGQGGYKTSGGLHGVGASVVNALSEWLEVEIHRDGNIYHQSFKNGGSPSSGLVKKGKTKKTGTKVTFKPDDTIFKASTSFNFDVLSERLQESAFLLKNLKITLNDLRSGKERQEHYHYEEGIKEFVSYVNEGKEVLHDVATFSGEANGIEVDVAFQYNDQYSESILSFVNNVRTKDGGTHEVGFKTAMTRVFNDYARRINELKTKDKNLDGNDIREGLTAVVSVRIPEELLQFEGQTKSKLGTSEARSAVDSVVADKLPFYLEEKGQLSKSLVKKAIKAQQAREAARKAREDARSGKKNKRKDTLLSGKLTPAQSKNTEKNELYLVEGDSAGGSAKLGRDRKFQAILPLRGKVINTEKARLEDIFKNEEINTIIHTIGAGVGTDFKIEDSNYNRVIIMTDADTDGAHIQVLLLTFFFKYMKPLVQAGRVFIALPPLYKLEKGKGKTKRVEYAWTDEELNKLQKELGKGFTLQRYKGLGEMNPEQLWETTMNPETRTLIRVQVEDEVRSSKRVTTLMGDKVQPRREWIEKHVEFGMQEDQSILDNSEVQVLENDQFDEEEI

Compound | IC50 (WI38 (Healthy cell line)) [µM] | IC50 [1] [µM] | effect on gyrase (E. coli gyrase) | effect on gyrase (S. aureus gyrase) | effect on topoisomerase IV (S. aureus Topo IV) | effect on topoisomerase IV (E. coli Topo IV)
COc1cc2c(cc1OCCCC(=O)Nc1cc(C(=O)Nc3ccc4sc(C(=O)N(C)C)cc4c3)n(C)c1)N=C[C@@H]1CCCN1C2=O [KMR-14-33, (S)—N-(2-(dimethylcarbamoyl)benzo[b]thiophen-5-yl)-4-(4-((7-methoxy-5-oxo-2,3,5,11a-tetrahydro-1H-benzo[e]pyrrolo[1,2-a][1,4]-diazepin-8-yl)oxy)butanamido)-1-methyl-1H-pyrrole-2-carboxamide] | > 20 | 15.6 |  |  |  | 
O=C(O)c1cn(C2CC2)c2cc(N3CCNCC3)c(F)cc2c1=O [CIP, ciprofloxacin, reference compound] |  |  | inhibits | inhibits | inhibits | inhibits
COc1cc2c(cc1OCCCC(=O)Nc1cc(C(=O)Nc3ccc4oc(C(=O)N5CCSCC5)cc4c3)n(C)c1)N=C[C@@H]1CCCN1C2=O [PP-A148, (S)-4-(4-((7-methoxy-5-oxo-2,3,5,11a-tetrahydro-1H-benzo-[e]pyrrolo[1,2-a][1,4]diazepin-8-yl)oxy)butanamido)-1-methyl-N-(2-(thiomorpholine-4-carbonyl)benzofuran-5-yl)-1H-pyrrole-2-carboxamide] | > 20 | > 20 | inhibits | inhibits | does not inhibit | does not inhibit
